Laboratory results reported in the supplement of paper PMC10733146.

Legend:
Assay in all cases: viability relative to DMSO control (fraction); higher = less drug effect (more viable cells)
Conditions in all cases: 48 h
[1] = system: primary ALL patient cells (S088)
Procedure, shortened: (§1)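 The cells were primary mononuclear tumour cells, either fresh or cryopreserved, isolated by Ficoll from blood or bone marrow or derived from processed lymph node. Each well of a 384-well plate received 4 × 10^4 cells onto compounds pre-plated at five concentrations, with one well per concentration. The medium was RPMI-1640 with penicillin/streptomycin, L-glutamine and human serum, and plates stood at 37 °C and 5% CO2 for 48 h. Viability is reported as CellTiter-Glo luminescence relative to the median of 16 inner DMSO wells.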

[2] = system: primary AML patient cells (S006)
Procedure, shortened: as §1

[3] = system: primary AML patient cells (S009)
Procedure, shortened: as §1

[4] = system: primary AML patient cells (S012)
Procedure, shortened: as §1

[5] = system: primary AML patient cells (S017)
Procedure, shortened: as §1

[6] = system: primary AML patient cells (S056)
Procedure, shortened: as §1

[7] = system: primary AML patient cells (S060)
Procedure, shortened: as §1

[8] = system: primary AML patient cells (S071)
Procedure, shortened: as §1

[9] = system: primary AML patient cells (S072)
Procedure, shortened: as §1

[10] = system: primary AML patient cells (S079)
Procedure, shortened: as §1

[11] = system: primary AML patient cells (S085)
Procedure, shortened: as §1

[12] = system: primary B-PLL patient cells (S016)
Procedure, shortened: as §1

[13] = system: primary BL patient cells (S005)
Procedure, shortened: as §1

[14] = system: primary CLL patient cells (S031)
Procedure, shortened: as §1

[15] = system: primary CLL patient cells (S043)
Procedure, shortened: as §1

[16] = system: primary DLBCL patient cells (S082)
Procedure, shortened: as §1

[17] = system: primary FL patient cells (S087)
Procedure, shortened: as §1

[18] = system: primary MCL patient cells (S041)
Procedure, shortened: as §1

[19] = system: primary MCL patient cells (S053)
Procedure, shortened: as §1

[20] = system: primary MCL patient cells (S063)
Procedure, shortened: as §1

## O=C(c1cc(Cc2n[nH]c(=O)c3ccccc23)ccc1F)N1CCN(C(=O)C2CC2)CC1 [Olaparib]
[1]; 0.024 µM
  viability: 0.579
[1]; 0.12 µM
  viability: 0.775
[1]; 0.6 µM
  viability: 0.788
[1]; 3 µM
  viability: 0.821
[1]; 15 µM
  viability: 0.787
[2]; 0.024 µM
  viability: 0.94
[2]; 0.12 µM
  viability: 0.986
[2]; 0.6 µM
  viability: 1.01
[2]; 3 µM
  viability: 0.884
[2]; 15 µM
  viability: 0.722
[3]; 0.024 µM
  viability: 0.977
[3]; 0.12 µM
  viability: 0.987
[3]; 0.6 µM
  viability: 1.02
[3]; 3 µM
  viability: 0.93
[3]; 15 µM
  viability: 0.958
[4]; 0.024 µM
  viability: 0.928
[4]; 0.12 µM
  viability: 0.976
[4]; 0.6 µM
  viability: 0.955
[4]; 3 µM
  viability: 0.925
[4]; 15 µM
  viability: 0.876
[5]; 0.024 µM
  viability: 0.796
[5]; 0.12 µM
  viability: 0.917
[5]; 0.6 µM
  viability: 0.931
[5]; 3 µM
  viability: 0.94
[5]; 15 µM
  viability: 0.914
[6]; 0.024 µM
  viability: 1.05
[6]; 0.12 µM
  viability: 0.922
[6]; 0.6 µM
  viability: 1.05
[6]; 3 µM
  viability: 1.15
[6]; 15 µM
  viability: 1.17
[7]; 0.024 µM
  viability: 0.947
[7]; 0.12 µM
  viability: 0.926
[7]; 0.6 µM
  viability: 0.979
[7]; 3 µM
  viability: 0.973
[7]; 15 µM
  viability: 0.987
[8]; 0.024 µM
  viability: 0.974
[8]; 0.12 µM
  viability: 1.01
[8]; 0.6 µM
  viability: 1.02
[8]; 3 µM
  viability: 0.917
[8]; 15 µM
  viability: 0.806
[9]; 0.024 µM
  viability: 0.829
[9]; 0.12 µM
  viability: 0.891
[9]; 0.6 µM
  viability: 0.914
[9]; 3 µM
  viability: 0.885
[9]; 15 µM
  viability: 0.852
[10]; 0.024 µM
  viability: 0.828
[10]; 0.12 µM
  viability: 0.844
[10]; 0.6 µM
  viability: 0.898
[10]; 3 µM
  viability: 0.893
[10]; 15 µM
  viability: 0.815
[11]; 0.024 µM
  viability: 0.861
[11]; 0.12 µM
  viability: 0.866
[11]; 0.6 µM
  viability: 0.988
[11]; 3 µM
  viability: 0.793
[11]; 15 µM
  viability: 0.992
[12]; 0.024 µM
  viability: 0.86
[12]; 0.12 µM
  viability: 0.871
[12]; 0.6 µM
  viability: 0.872
[12]; 3 µM
  viability: 0.8
[12]; 15 µM
  viability: 0.722
[13]; 0.024 µM
  viability: 0.938
[13]; 0.12 µM
  viability: 0.985
[13]; 0.6 µM
  viability: 0.977
[13]; 3 µM
  viability: 0.904
[13]; 15 µM
  viability: 0.878
[14]; 0.024 µM
  viability: 0.814
[14]; 0.12 µM
  viability: 0.89
[14]; 0.6 µM
  viability: 0.913
[14]; 3 µM
  viability: 0.829
[14]; 15 µM
  viability: 0.854
[15]; 0.024 µM
  viability: 0.797
[15]; 0.12 µM
  viability: 0.814
[15]; 0.6 µM
  viability: 0.835
[15]; 3 µM
  viability: 0.867
[15]; 15 µM
  viability: 0.825
[16]; 0.024 µM
  viability: 0.835
[16]; 0.12 µM
  viability: 0.887
[16]; 0.6 µM
  viability: 0.878
[16]; 3 µM
  viability: 0.817
[16]; 15 µM
  viability: 0.718
[17]; 0.024 µM
  viability: 0.882
[17]; 0.12 µM
  viability: 0.916
[17]; 0.6 µM
  viability: 0.911
[17]; 3 µM
  viability: 0.912
[17]; 15 µM
  viability: 0.845
[18]; 0.024 µM
  viability: 0.845
[18]; 0.12 µM
  viability: 0.889
[18]; 0.6 µM
  viability: 0.93
[18]; 3 µM
  viability: 0.933
[18]; 15 µM
  viability: 0.895
[19]; 0.024 µM
  viability: 0.801
[19]; 0.12 µM
  viability: 0.863
[19]; 0.6 µM
  viability: 0.834
[19]; 3 µM
  viability: 0.685
[19]; 15 µM
  viability: 0.643
[20]; 0.024 µM
  viability: 0.872
[20]; 0.12 µM
  viability: 0.936
[20]; 0.6 µM
  viability: 0.893
[20]; 3 µM
  viability: 0.933
[20]; 15 µM
  viability: 0.886

## Nc1nc(Cl)nc2c1ncn2[C@@H]1O[C@H](CO)[C@@H](O)[C@@H]1F [Clofarabine]
[1]; 0.024 µM
  viability: 0.569
[1]; 0.12 µM
  viability: 0.254
[1]; 0.6 µM
  viability: 0.203
[1]; 3 µM
  viability: 0.173
[1]; 15 µM
  viability: 0.109
[2]; 0.024 µM
  viability: 0.759
[2]; 0.12 µM
  viability: 0.381
[2]; 0.6 µM
  viability: 0.351
[2]; 3 µM
  viability: 0.461
[2]; 15 µM
  viability: 0.489
[3]; 0.024 µM
  viability: 0.585
[3]; 0.12 µM
  viability: 0.541
[3]; 0.6 µM
  viability: 0.391
[3]; 3 µM
  viability: 0.381
[3]; 15 µM
  viability: 0.258
[4]; 0.024 µM
  viability: 0.956
[4]; 0.12 µM
  viability: 0.826
[4]; 0.6 µM
  viability: 0.459
[4]; 3 µM
  viability: 0.276
[4]; 15 µM
  viability: 0.136
[5]; 0.024 µM
  viability: 1.06
[5]; 0.12 µM
  viability: 0.91
[5]; 0.6 µM
  viability: 0.538
[5]; 3 µM
  viability: 0.3
[5]; 15 µM
  viability: 0.149
[6]; 0.024 µM
  viability: 1
[6]; 0.12 µM
  viability: 0.413
[6]; 0.6 µM
  viability: 0.288
[6]; 3 µM
  viability: 0.277
[6]; 15 µM
  viability: 0.303
[7]; 0.024 µM
  viability: 1.09
[7]; 0.12 µM
  viability: 1.06
[7]; 0.6 µM
  viability: 0.723
[7]; 3 µM
  viability: 0.402
[7]; 15 µM
  viability: 0.126
[8]; 0.024 µM
  viability: 0.646
[8]; 0.12 µM
  viability: 0.298
[8]; 0.6 µM
  viability: 0.219
[8]; 3 µM
  viability: 0.217
[8]; 15 µM
  viability: 0.211
[9]; 0.024 µM
  viability: 0.863
[9]; 0.12 µM
  viability: 0.762
[9]; 0.6 µM
  viability: 0.587
[9]; 3 µM
  viability: 0.521
[9]; 15 µM
  viability: 0.407
[10]; 0.024 µM
  viability: 0.804
[10]; 0.12 µM
  viability: 0.512
[10]; 0.6 µM
  viability: 0.285
[10]; 3 µM
  viability: 0.139
[10]; 15 µM
  viability: 0.0818
[11]; 0.024 µM
  viability: 0.897
[11]; 0.12 µM
  viability: 0.41
[11]; 0.6 µM
  viability: 0.286
[11]; 3 µM
  viability: 0.468
[11]; 15 µM
  viability: 0.555
[12]; 0.024 µM
  viability: 0.711
[12]; 0.12 µM
  viability: 0.332
[12]; 0.6 µM
  viability: 0.0601
[12]; 3 µM
  viability: 0.034
[12]; 15 µM
  viability: 0.0319
[13]; 0.024 µM
  viability: 0.929
[13]; 0.12 µM
  viability: 0.925
[13]; 0.6 µM
  viability: 0.761
[13]; 3 µM
  viability: 0.882
[13]; 15 µM
  viability: 0.735
[14]; 0.024 µM
  viability: 0.424
[14]; 0.12 µM
  viability: 0.0924
[14]; 0.6 µM
  viability: 0.0411
[14]; 3 µM
  viability: 0.0349
[14]; 15 µM
  viability: 0.0384
[15]; 0.024 µM
  viability: 1
[15]; 0.12 µM
  viability: 0.888
[15]; 0.6 µM
  viability: 0.457
[15]; 3 µM
  viability: 0.284
[15]; 15 µM
  viability: 0.157
[16]; 0.024 µM
  viability: 0.834
[16]; 0.12 µM
  viability: 0.53
[16]; 0.6 µM
  viability: 0.377
[16]; 3 µM
  viability: 0.362
[16]; 15 µM
  viability: 0.319
[17]; 0.024 µM
  viability: 0.823
[17]; 0.12 µM
  viability: 0.673
[17]; 0.6 µM
  viability: 0.587
[17]; 3 µM
  viability: 0.536
[17]; 15 µM
  viability: 0.547
[18]; 0.024 µM
  viability: 0.862
[18]; 0.12 µM
  viability: 0.254
[18]; 0.6 µM
  viability: 0.0698
[18]; 3 µM
  viability: 0.0397
[18]; 15 µM
  viability: 0.0361
[19]; 0.024 µM
  viability: 0.492
[19]; 0.12 µM
  viability: 0.356
[19]; 0.6 µM
  viability: 0.266
[19]; 3 µM
  viability: 0.255
[19]; 15 µM
  viability: 0.211
[20]; 0.024 µM
  viability: 0.912
[20]; 0.12 µM
  viability: 0.736
[20]; 0.6 µM
  viability: 0.245
[20]; 3 µM
  viability: 0.0814
[20]; 15 µM
  viability: 0.0383
